Patent publication US7420056B2, “Substituted bicyclic imidazo-3-ylamine compounds” (Gruenenthal GmbH, priority 2004, dated 2008)
pIC50: −log10 of the molar value. Structures can show the parent of a compound that is named as a salt.

Target: mGluR5 receptor (Sus scrofa, UniProt I3LUI7)
Assay: Affinity for the mGluR5 receptor: inhibition of 3[H]-MPEP binding in pig brain homogenate
Conditions: 10 μM compound, 5 nM 3[H]-MPEP, read-out: mGluR5 receptor inhibition of ^3[H]-MPEP binding [10 μM] in % at a concentration of the example compounds of 10 μM
Method: 1. Method for Determining Affinity for the mGluR5 Receptor
Pig brain homogenate is produced by homogenisation (Polytron Pt 3000, Kinematica AG, 10,000 revolutions per minute for 90 seconds) of pig brain hemispheres without medulla, cerebellum and pons in a buffer of pH 8.0 (30 mM Hepes, Sigma, order number H3375+1 tablet Complete Roche Diagnostics, order number 1836145 made up to 100 ml) in a ratio of 1:20 (brain weight/volume) and differential centrifugation at 900×g and 40,000×g. 450 μg of protein from brain homogenate is incubated in each case in 250 μl incubation batches in 96-well microtitre plates with 5 nM 3[H]-MPEP (Tocris, order number R1212) (MPEP=2-methyl-6-[…]) and the compounds to be investigated (10 μM in the test) in the buffer (as above) at room temperature for 60 minutes.
The batches are then filtered with the assistance of a Brandel Cell Harvester (Brandel, Grade Robotic 9600) on Unifilter plates with glass filter mats (Perkin Elmer, order number 6005177) and then washed 3 times with buffer (as above) using 250 μl per sample. The filter plates are then dried for 60 minutes at 55° C. Then 30 μl of Ultima Gold™ scintillating material (Packard BioScience, order number 6013159) is added per well and after 3 hours the samples are measured using the β counter (Microbeta, Perkin Elmer). Nonspecific binding is determined by the addition of 10 μM MPEP (Tocris, order number 1212).

Sequence of mGluR5 receptor (I3LUI7 19-1212): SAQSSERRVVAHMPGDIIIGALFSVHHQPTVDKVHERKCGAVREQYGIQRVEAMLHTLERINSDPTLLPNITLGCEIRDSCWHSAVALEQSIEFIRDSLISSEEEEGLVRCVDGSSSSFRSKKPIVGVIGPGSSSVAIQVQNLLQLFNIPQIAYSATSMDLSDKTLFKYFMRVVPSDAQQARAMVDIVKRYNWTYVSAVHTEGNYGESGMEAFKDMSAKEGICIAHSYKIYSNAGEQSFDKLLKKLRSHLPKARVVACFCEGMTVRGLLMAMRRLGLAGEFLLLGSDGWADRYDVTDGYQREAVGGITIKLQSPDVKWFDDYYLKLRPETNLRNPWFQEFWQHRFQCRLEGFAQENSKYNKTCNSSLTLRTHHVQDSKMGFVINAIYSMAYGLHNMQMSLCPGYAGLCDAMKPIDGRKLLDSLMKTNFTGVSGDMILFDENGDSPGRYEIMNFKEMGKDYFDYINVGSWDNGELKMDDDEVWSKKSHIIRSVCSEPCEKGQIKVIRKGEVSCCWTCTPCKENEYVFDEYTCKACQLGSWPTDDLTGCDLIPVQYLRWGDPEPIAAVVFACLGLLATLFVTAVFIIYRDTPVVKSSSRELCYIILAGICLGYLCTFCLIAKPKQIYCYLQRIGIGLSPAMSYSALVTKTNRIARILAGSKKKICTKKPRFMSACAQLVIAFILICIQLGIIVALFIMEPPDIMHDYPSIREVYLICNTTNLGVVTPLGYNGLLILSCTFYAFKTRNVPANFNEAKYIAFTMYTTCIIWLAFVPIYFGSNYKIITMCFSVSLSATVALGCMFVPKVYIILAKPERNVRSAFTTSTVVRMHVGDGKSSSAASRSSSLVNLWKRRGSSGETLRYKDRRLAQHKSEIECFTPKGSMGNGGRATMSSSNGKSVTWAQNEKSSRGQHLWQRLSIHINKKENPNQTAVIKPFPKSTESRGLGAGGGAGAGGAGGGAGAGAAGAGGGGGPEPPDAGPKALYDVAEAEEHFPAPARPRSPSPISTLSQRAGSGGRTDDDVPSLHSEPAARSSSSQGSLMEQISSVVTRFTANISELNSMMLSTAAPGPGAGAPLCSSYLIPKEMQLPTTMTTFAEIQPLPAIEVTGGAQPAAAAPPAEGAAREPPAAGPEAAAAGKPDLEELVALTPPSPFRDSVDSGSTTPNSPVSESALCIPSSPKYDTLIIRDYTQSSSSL

Compared with `COc1cccc(CNc2c(-c3ccc(C#Cc4ccccc4)s3)nc3cc(C)cc(C)n23)c1` [Example 23, [5,7-dimethyl-2-(5-phenylethynyl-thiophen-2-yl)-imidazo[1,2-a]pyridin-3-yl]-(3-methoxy-benzyl)-amine], `COc1cccc(CNc2c(-c3ccc(C#Cc4ccccc4)s3)nc3cnccn23)c1` [Example 26, (3-methoxy-benzyl)-[2-(5-phenylethynyl-thiophen-2-yl)-imidazo[1,2-a]pyrazin-3-yl]-amine] is higher in inhibition at 10 µM: 86% for the first, 97% for the second.

Going from `CC(C)(C)Nc1c(-c2ccc(C#Cc3ccccn3)cc2)nc2ccccn12` [Example 264, N-tert-butyl-2-(4-(pyridin-2-ylethynyl)phenyl)imidazo[1,2-a]pyridin-3-amine] to `CC(C)(C)Nc1c(-c2ccc(C#Cc3ccccc3)nc2)nc2ccccn12` [Example 282, N-tert-butyl-2-(6-(phenylethynyl)pyridin-3-yl)imidazo[1,2-a]pyridin-3-amine], the inhibition at 10 µM falls from 83% to 72%.

First: Cc1cc(Br)c2nc(-c3ccc(C#Cc4ccccn4)o3)c(NC3CCCCC3)n2c1 [Example 215, 8-bromo-N-cyclohexyl-6-methyl-2-(5-(pyridin-2-ylethynyl)furan-2-yl)imidazo[1,2-a]pyridin-3-amine]
Second: Cc1cc(Br)c2nc(-c3ccc(C#Cc4ccccn4)cc3)c(NC3CCCC3)n2c1 [Example 250, 8-bromo-N-cyclopentyl-6-methyl-2-(4-(pyridin-2-ylethynyl)phenyl)imidazo[1,2-a]pyridin-3-amine]
The inhibition at 10 µM of the first is lower: 51% for the first, 69% for the second.

Compared with `Cc1cc(Br)c2nc(-c3cc(C#Cc4ccccc4)cs3)c(NCc3ccc(Cl)cc3)n2c1` [Example 232, 8-bromo-N-(4-chlorobenzyl)-6-methyl-2-(4-(phenylethynyl)thiophen-2-yl)imidazo[1,2-a]pyridin-3-amine], `Clc1ccccc1CNc1c(-c2ccc(C#Cc3ccccc3)s2)nc2ccccn12` [Example 39, (2-chloro-benzyl)-[2-(5-phenylethynyl-thiophen-2-yl)-imidazo[1,2-a]pyridin-3-yl]-amine] is lower in inhibition at 10 µM: 75% for the first, 72% for the second.

Going from `Cc1cccc(C#Cc2cccc(-c3nc4ccccn4c3NC3CCCCC3)c2)n1` [Example 288, N-cyclohexyl-2-(3-((6-methylpyridin-2-yl)ethynyl)phenyl)imidazo[1,2-a]pyridin-3-amine] to `Cc1cccc(C#Cc2cccc(-c3nc4ccc(Cl)cn4c3NC3CCCCC3)c2)n1` [Example 193, 6-chloro-N-cyclohexyl-2-(3-((6-methylpyridin-2-yl)ethynyl)phenyl)imidazo[1,2-a]pyridin-3-amine], the inhibition at 10 µM falls from 89% to 79%.

First: CCCC(C)(C)Nc1c(-c2ccc(C#Cc3ccccc3)s2)nc2cnccn12 [Example 205, N-(2-methylpentan-2-yl)-2-(5-(phenylethynyl)thiophen-2-yl)imidazo[1,2-a]pyrazin-3-amine]
Second: CC(C)(C)CC(C)(C)Nc1c(-c2ccc(C#Cc3ccccc3)s2)nc2c(Cl)cc(Cl)cn12 [Example 63, [6,8-dichloro-2-(5-phenylethynyl-thiophen-2-yl)-imidazo[1,2-a]pyridin-3-yl]-(1,1,3,3-tetramethyl-butyl)-amine]
The inhibition at 10 µM of the first is higher: 92% for the first, 65% for the second.

Going from `CC(Nc1c(-c2ccc(C#Cc3ccccc3)s2)nc2c(OCc3ccccc3)cccn12)c1ccccc1` (stereo not shown) [Example 30, [8-benzyloxy-2-(5-phenylethynyl-thiophen-2-yl)-imidazo[1,2-a]pyridin-3-yl]-(1-phenyl-ethyl)-amine] to `Fc1ccc(Nc2c(-c3ccc(C#Cc4ccccc4)s3)nc3cc(CCCc4ccccc4)ccn23)c(F)c1` [Example 50, (2,4-difluoro-phenyl)-[2-(5-phenylethynyl-thiophen-2-yl)-7-(3-phenyl-propyl)-imidazo[1,2-a]pyridin-3-yl]-amine], the inhibition at 10 µM rises from 73% to 90%.

Going from `Cc1cc(C)n2c(NC3CCCCC3)c(-c3ccc(C#Cc4ccccc4)nc3C)nc2n1` [Example 293, N-cyclohexyl-5,7-dimethyl-2-(2-methyl-6-(phenylethynyl)pyridin-3-yl)imidazo[1,2-a]pyrimidin-3-amine] to `Cc1nc(C#Cc2ccccc2)ccc1-c1nc2ccccn2c1NC1CCCC1` [Example 265, N-cyclopentyl-2-(2-methyl-6-(phenylethynyl)pyridin-3-yl)imidazo[1,2-a]pyridin-3-amine], the inhibition at 10 µM falls from 70% to 68%.

Compared with `CC(C)(C)CC(C)(C)Nc1c(-c2ccc(C#Cc3ccccn3)o2)nc2cnccn12` [Example 248, 2-(5-(pyridin-2-ylethynyl)furan-2-yl)-N-(2,4,4-trimethylpentan-2-yl)imidazo[1,2-a]pyrazin-3-amine], `CC(C)(C)CC(C)(C)Nc1c(-c2ccc(C#Cc3ccccn3)s2)nc2ncccn12` [Example 253, 2-(5-(pyridin-2-ylethynyl)thiophen-2-yl)-N-(2,4,4-trimethylpentan-2-yl)imidazo[1,2-a]pyrimidin-3-amine] is higher in inhibition at 10 µM: 68% for the first, 73% for the second.

Molecule `Fc1ccc(Nc2c(-c3ccc(C#Cc4ccccn4)cc3)nc3cnccn23)cc1` [Example 242, N-(4-fluorophenyl)-2-(4-(pyridin-2-ylethynyl)phenyl)imidazo[1,2-a]pyrazin-3-amine] has an inhibition at 10 µM of 91%.

Same assay, conditions: 3[H]-MPEP binding

Compared with `Cc1ccc(C#Cc2ccc(-c3nc4cnccn4c3NC(C)(C)C)s2)nc1` [Example 131, N-tert-butyl-2-(5-((5-methylpyridin-2-yl)ethynyl)thiophen-2-yl)imidazo[1,2-a]pyrazin-3-amine hydrochloride], `CC(C)(C)Nc1c(-c2ccc(C#Cc3cccc(F)n3)s2)nc2cnccn12` [Example 165, N-tert-butyl-2-(5-((6-fluoropyridin-2-yl)ethynyl)thiophen-2-yl)imidazo[1,2-a]pyrazin-3-amine] is 0.89 log units higher in pIC50: 6.85 for the first, 7.74 for the second.

First: Nc1c(-c2ccc(C#Cc3ccccn3)s2)nc2cnccn12 [Example 134, 2-(5-(pyridin-2-ylethynyl)thiophen-2-yl)imidazo[1,2-a]pyrazin-3-amine hydrochloride]
Second: CNc1c(-c2ccc(C#Cc3ccccc3)s2)nc2cnccn12 [Example 66, methyl-[2-(5-phenylethynyl-thiophen-2-yl)-imidazo[1,2-a]pyrazin-3-yl]-amine]
The pIC50 of the first is 0.74 log units higher: 6.24 for the first, 5.50 for the second.

First: C(#Cc1ccc(-c2nc3cnccn3c2N2CCCCC2)s1)c1ccccc1 [Example 88, 2-(5-(phenylethynyl)thiophen-2-yl)-3-(piperidin-1-yl)imidazo[1,2-a]pyrazine]
Second: CC(C)(C)Nc1c(-c2ccc(C#Cc3ccccc3)s2)nc2cnccn12 [Example 18, tert-butyl-[2-(5-phenylethynyl-thiophen-2-yl)-imidazo[1,2-a]pyrazin-3-yl]-amine]
The pIC50 of the first is 1.34 log units lower: 5.85 for the first, 7.19 for the second.

Compared with `CC(C)(C)Nc1c(-c2ccc(C#Cc3ccccc3)nc2)nc2cnccn12` [Example 126, N-tert-butyl-2-(6-(phenylethynyl)pyridin-3-yl)imidazo[1,2-a]pyrazin-3-amine], `CC(C)(C)Nc1c(-c2ccc(C#Cc3ccccc3)o2)nc2cnccn12` [Example 95, N-tert-butyl-2-(5-(phenylethynyl)furan-2-yl)imidazo[1,2-a]pyrazin-3-amine] is 0.27 log units higher in pIC50: 5.49 for the first, 5.76 for the second. The second is the more potent here.

Compared with `CC(C)(C)Nc1c(-c2ccc(C#Cc3cccc([N+](=O)[O-])c3)s2)nc2cnccn12` [Example 150, N-tert-butyl-2-(5-((3-nitrophenyl)ethynyl)thiophen-2-yl)imidazo[1,2-a]pyrazin-3-amine hydrochloride], `CC(C)(C)Nc1c(-c2ccc(C#Cc3cccc(N)c3)s2)nc2cnccn12` [Example 123, 2-(5-((3-aminophenyl)ethynyl)thiophen-2-yl)-N-tert-butylimidazo[1,2-a]pyrazin-3-amine hydrochloride] is 0.89 log units higher in pIC50: 6.96 for the first, 7.85 for the second. The second is the more potent here.

Compared with `CC(C)(C)Nc1c(-c2cnc(C#Cc3ccncc3)s2)nc2cnccn12` [Example 177, N-tert-butyl-2-(2-(pyridin-4-ylethynyl)thiazol-5-yl)imidazo[1,2-a]pyrazin-3-amine], `CC(C)(C)Nc1c(-c2ccc(C#Cc3cccc(-n4cccc4)c3)s2)nc2cnccn12` [Example 148, 2-(5-((3-(1H-pyrrol-1-yl)phenyl)ethynyl)thiophen-2-yl)-N-tert-butylimidazo[1,2-a]pyrazin-3-amine hydrochloride] is 1.32 log units lower in pIC50: 7.80 for the first, 6.48 for the second.

Going from `Cn1cncc1C#Cc1ccc(-c2nc3ccccn3c2NC(C)(C)C)s1` [Example 337, tert-butyl-{2-[5-(3-methyl-3H-imidazol-4-ylethynyl)-thiophen-2-yl]-imidazo[1,2-a]pyridin-3-yl}-amine hydrochloride] to `CC(C)(C)Nc1c(-c2ccc(C#Cc3ccccc3)s2)nc2c(C(=O)O)nccn12` [Example 120, 3-(tert-butylamino)-2-(5-(phenylethynyl)thiophen-2-yl)imidazo[1,2-a]pyrazine-8-carboxylic acid], the pIC50 rises from 5.20 to 5.44 (0.24 log units).

`CC(C)CNc1c(-c2ccc(C#Cc3ccccc3)s2)nc2cnccn12` [Example 71, (2-methylpropyl)-[2-(5-phenylethynyl-thiophen-2-yl)-imidazo[1,2-a]pyrazin-3-yl]-amine] showed a pIC50 of 5.90.
